B1: TNFα: recombinant murine TNFα (protein)
chain: LRSSSQNSSDKPVAHVVANHQVEEQLEWLSQRANALLANGMDLKDNQLVVPADGLYLVYSQVLFKGQGCPDYVLLTHTVSRFAISYQEKVNLLSAVKSPCPKDTPEGAELKPWYEPIYLGGVFQLEKGDQLSAEVNLPKYLDFAESGQVYFGVIAL
B2: IL-1β: recombinant murine IL-1β (protein, UniProt P10749 118-269, looked up)
Interleukin-1 beta: VPIRQLHYRLRDEQQKSLVLSDPYELKALHLNGQNINQQVIFSMSFVQGEPSNDKIPVALGLKGKNLYLSCVMKDGTPTLQLESVDPKQYPKKKMEKRFVFNKIEVKSKVEFESAEFPNWYISTSQAEHKPVFLGNNSGQDIIDFTMESVSS
B3: IL-6: recombinant murine IL-6 (protein, UniProt P08505 25-211, looked up)
Interleukin-6: FPTSQVRRGDFTEDTTPNRPVYTTSQVGGLITHVLWEIVEMRKELCNGNSDCMNNDDALAENNLKLPEIQRNDGCYQTGYNQEICLLKISSGLLEYHSYLEYMKNNLKDNKKDKARVLQRDTETLIHIFNQEVKDLHKIVLPTPISNALLTDKLESQKEWLRTKTIQFILKSLEEFLKVTLRSTRQT
B4: IFNγ: recombinant murine IFNγ (protein, UniProt P01580 23-155, looked up)
Interferon gamma: HGTVIESLESLNNYFNSSGIDVEEKSLFLDIWRNWQKDGDMKILQSQIISFYLRLFEVLKDNQAISNNISVIESHLITTFFSNSKAKKDAFMSIAKFEVNNPQVQRQAFNELIRVVHQLLPESSLRKRKRSRC

Assays:
Peritoneal Macrophages = assay: Steroid-induced MIF secretion by peritoneal macrophages; format: cell-based, mouse; conditions: 12 to 15 h
Protocol: Cells were incubated for 12 to 15 h with various steroids (at concentrations ranging from 10^−6M to 10^−14M).
Samples were resolved on 18% SDS polyacrylamide gels under reducing conditions and transferred onto nitrocellulose membrane (Schleicher and Schuell, Keene, N.H.) at 50 V and 150 mA for 16 h. Membranes were blocked with 500 mM NaCl, 50 mM Tris-Base, pH 7.5 buffer containing 5% nonfat dry milk and 0.05% Tween-20 and incubated first with polyclonal anti-rMIF serum and then with horseradish peroxidase-conjugated goat anti-rabbit IgG antibody (each diluted 1:1000 in 500 mM NaCl, 50 mM Tris-Base, pH 7.5 buffer with 1% BSA). […] Incubations were 1 h each. MIF was visualized by development with chloronaphtol/H2O2 or with TMB substrate.

RAW macrophages = assay: Inhibition of the macrophage MIF response to dexamethasone; format: cell-based, mouse; conditions: pretreatment and co-administration, 10^−6M
Protocol: RAW 264.7 murine macrophages were obtained from the American Type Culture Collection (Rockville, Md.). Cells were grown in RPMI 1640 medium (Gibco, Grand Island, N.Y.), 10% heat-inactivated fetal bovine serum (FBS) (HyClone, Logan, Utah), 50 μg/ml of carbenicillin and gentamicin. […] After 3 h of incubation at 37° C. in a humidified atmosphere with 5% CO2, nonadherent cells were removed and wells were washed twice with RPMI/1% FBS. In some experiments designed to test for inhibition of MIF release, test compounds were then added to the culture media. For example, the cells were pre-treated with 20α-dihydrocorticol at a final concentration of 10^−6M. Cells then were incubated for 12-15 h with various steroids at concentrations ranging from 10^−6M to […] (e.q., dexamethasone), along with the desired test compound (e.g., 20α-dihydrocortisol) if any. At the end of experiment, cell culture media were collected and centrifuged (10 min at 800 g). Cell-conditioned media were concentrated 10-fold by membrane filtration (10 kDa cut-off) (Centricon-10, Amicon, Beverly, N.Y.).
Samples were resolved on 18% SDS polyacrylamide gels under reducing conditions and transferred onto nitrocellulose membrane (Schleicher and Schuell, Keene, N.H.) at 50 V and 150 mA for 16 h. […]

[1] = system: Sprague-Dawley female rats; assay: Serum MIF after i.v. steroid injection; format: in vivo, rat; conditions: 10 mg/kg i.v., serum Western blotting
Protocol: Canulated Sprague-Dawley female rats were purchased from Zivic-Miller. Animals were housed with free access to food and water and were acclimatized for at least 2 days prior to experimentation. Rats were injected i.v. through the jugular vein with either dexamethasone (1, 10 or 20 mg/kg), or with RU38486 (mifepristone) (1 or 10 mg/kg), or with the two drugs together (both at 10 mg/kg, RU38486 was injected 15 min. before dexamethasone). Serum was collected 3, 6, and 9 hours post-steroids injection and analyzed by Western blotting with anti-MIF antibody.

AtT-20 pituitary cells = assay: MIF release from pituitary (AtT-20) cells (Western blotting); format: cell-based, mouse; conditions: 1-100 ng/ml
Protocol: AtT-20 cells were cultured for 24 hours in serum-free medium (enriched serum-free Joklik's medium from Gibco) containing various concentrations of LPS (E. coli LPS 0111:B4 from Sigma) at 0.5 μg/ml-50 μg/ml. […] This protein was transferred to polyvinylidene difluoride membrane and its primary N-terminal amino acid sequence was determined by automated gas-phase sequencing (Applied Biosystems).
MIF release from pituitary (AtT-20) cells was analyzed by Western blotting with anti-MIF antibody (FIG. 8). 1.5×10^5 pituitary cells were cultured serum-free for 18 h with different concentrations of LPS. After transfer, nitrocellulose membranes were incubated with rabbit anti-rMIF serum (1:1000 dilution) and bound antibody visualized with horseradish peroxidase-conjugated goat anti-rabbit antibody. 100 ng of rMIF was electrophoresed on the same gel for reference. Control supernatants (C) contained 1 μg/ml LPS that was added after removal of cells.

[2] = system: thioglycollate-elicited peritoneal macrophages; assay: MIF secretion by thioglycollate-elicited peritoneal macrophages stimulated with LPS or IFNγ plus LPS; format: cell-based, mouse; conditions: IFNγ 100 IU/ml given 1 h prior to LPS
Protocol: After 3 h of incubation at 37° C. in a humidified atmosphere with 5% CO2, nonadherent cells were removed and wells were washed twice with RPMI/1% FBS. Cells then were incubated for 12 h with LPS (at concentrations ranging from 1 pg/ml to 1 μg/ml) or with cytokines (1 or 10 ng/ml for TNFα, IL-1β, and IL-6, and 10, 100 or 1000 IU/ml for IFNγ) diluted in RPMI/1% FBS. For time-course experiments, conditioned media of parallel cultures were removed at 3, 6, 9, 12 and 15 h intervals after LPS stimulation. […] Cells were incubated for 12 h either with LPS or with IFNγ plus LPS. When co-stimulated with IFNγ and LPS, cells were first incubated for an hour with IFNγ (100 IU/ml) before addition of LPS at the indicated concentrations. At the end of each experiment, cell-culture media were collected, centrifuged (10 min at 800 g), and supplemented with PMSF (1 mM). Supernatants then were concentrated 10-fold by membrane filtration (10 kD cut-off) (Centricon-10, Amicon, Beverly, N.Y.). […]
For Western blotting, samples were resolved on 18% SDS polyacrylamide gels under reducing conditions and transferred onto nitrocellulose membrane (Schleicher and Schuell, Keene, N.H.) at 50 V and 150 mA for 16 h. […] Serum MIF bands were quantified by laser densitometry (Shimadzu FDU-3, CS-9000U, Braintree, Mass.). Faint densitometric signals in the MIF region were detected in most sera prior to LPS administration (0 h). […]

| Molecule | Range of Steroid Concentrations Inducing MIF in Peritoneal Macrophages (Peritoneal Macrophages) | MIF release from pituitary cells (AtT-20 pituitary cells) | other results |
| --- | --- | --- | --- |
| C[C@]12CCC(=O)C=C1CC[C@@H]1[C@@H]2[C@@H](O)C[C@@]2(C)[C@H]1CC[C@]2(O)[C@@H](O)CO [4-pregnene-11β,17α,20α,21-tetrol-3-one] | 10^−10 to 10^−14 M | – | Effect on the MIF response to dexamethasone (RAW macrophages): attenuates or abolishes |
| C[C@]12CCC(=O)C=C1CC[C@@H]1[C@@H]2[C@@H](O)C[C@]2(C=O)[C@@H](C(=O)CO)CC[C@@H]12 [Aldosterone] | 10^−8 to 10^−14 M | – | – |
| C[C@@H]1C[C@H]2[C@@H]3CCC4=CC(=O)C=C[C@]4(C)[C@@]3(F)[C@@H](O)C[C@]2(C)[C@@]1(O)C(=O)CO [Dexamethasone] | 10^−8 to 10^−12 M | – | – |
| C[C@]12CCC(=O)C=C1CC[C@@H]1[C@@H]2[C@@H](O)C[C@@]2(C)[C@H]1CC[C@]2(O)C(=O)CO [Hydrocortisone] | 10^−8 to 10^−16 M | – | – |
| CC#C[C@]1(O)CC[C@H]2[C@@H]3CCC4=CC(=O)CCC4=C3[C@@H](c3ccc(N(C)C)cc3)C[C@@]21C [RU-38486 (mifepristone), mifepristone] | – | – | MIF secretion in vivo [1]: induced MIF secretion |
| C[C@]12CC[C@H]3[C@@H](CCC4=CC(=O)CC[C@@]43C)[C@@H]1CC[C@@H]2O [Testosterone] | 10^−8 to 10^−14 M | – | – |
| B1 | – | not released | – |
| B2 | – | not released | – |
| B3 | – | not released | – |
| B4 | – | not released | Increase in LPS responsiveness on co-stimulation [2]: > 1000 fold |

From patent publication US7517523B2, “Anti-MIF antibodies” (Cytokine PharmaSciences, Inc., priority 1993, dated 2009)
